In US7354938B2, “Pyrazole compounds and uses related thereto” (Amgen Inc., priority 2004, dated 2008) one finds IC50 data, which are given here for 14 compounds.

Some results are limits rather than exact numbers.

As usually defined, the IC50 is the concentration that inhibits the measured activity by half.

The target of this experiment is T1, human HSD1 (recombinant HSD1) (Homo sapiens, UniProt P28845).
T1 construct: made in house
T1 sequence (P28845 whole entry): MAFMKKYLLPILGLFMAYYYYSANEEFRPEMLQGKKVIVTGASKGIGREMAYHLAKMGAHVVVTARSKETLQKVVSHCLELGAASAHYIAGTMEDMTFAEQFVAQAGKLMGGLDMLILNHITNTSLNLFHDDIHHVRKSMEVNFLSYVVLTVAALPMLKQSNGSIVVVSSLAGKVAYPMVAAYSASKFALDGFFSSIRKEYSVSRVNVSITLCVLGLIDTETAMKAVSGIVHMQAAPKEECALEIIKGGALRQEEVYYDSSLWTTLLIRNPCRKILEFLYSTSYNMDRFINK
Kind of experiment: In vitro HSD1 activity inhibitory action (SPA, conversion of cortisone to cortisol). Type of experiment: biochemical. The following applies: recombinant human HSD1 expressed in baculo-virus system, 16 nM 3H cortisone, 500 μM NADPH, room temperature, 90 min. As to the method:
In Vitro HSD1 (Hydroxysteroid Dehydrogenase 1) Activity Inhibitory Action
The HSD1 inhibitory activity was examined by quantitative determination by an SPA (scintillation proximity assay) system of the suppressive action on the conversion from cortisone to cortisol using human HSD1 (hereinafter recombinant HSD1) expressed using a baculo-virus system as an enzyme source. For the reaction, a reagent was added to a 96 well plate (96 well Opti-plates™-96 (Packard)) to the following final concentration and a volume of 100 μl was reacted at room temperature for 90 min. The reaction solution used was 0.1 μg/mL recombinant HSD1,500 μM NADPH, 16 nM ^3H cortisone (Amersham Biosciences, 1.78 Tbq/mol) dissolved in 0.1% BSA (Sigma)-containing PBS and the test drug was 2 μl of a compound solution (dissolved in DMSO). After 90 min, the reaction was stopped by adding PBS (40 μl, containing 0.1% BSA (Sigma)) containing 0.08 μg of anti-cortisol mouse monoclonal antibody (East Coast Biologics), 365 μg SPA PVT mouse antibody-binding beads (Amersham Biosciences) and 175 μM carbenoxolone (Sigma) to the reaction solution. After the completion of the reaction, the plate was incubated overnight at room temperature and the radioactivity was measured by Topcount (Packard). For control, the value (0% inhibition) of the well containing 2 μl of DMSO instead of the test drug was used, and for positive control, the value (100% inhibition) of the well containing carbenoxolone instead of the test drug at the final concentration of 50 μM was used. The inhibition (%) of the test drug was calculated by ((value of control−value of test drug)/(value of control−value of positive control))×100 (%). The IC50 value was analyzed using a computer-based curve fitting soft.
As for `CC(C)c1c(-c2ccccc2)n[nH]c1C1(c2ccc(F)cc2)CC1` [Ex. 1-12], the IC50 was less than 10 nM. As for `OCc1c(-c2ccc(Cl)cc2Cl)n[nH]c1Cc1ccc(F)cc1` [Ex. 1-8], the IC50 was 10 to 1000 nM.

On to `Cc1c(-c2ccccn2)n[nH]c1C1(c2ccc(F)cc2)CC1` [Ex. 1-15], for which the IC50 is less than 10 nM. Turning to `Cc1c(C2CCN(c3ncccc3Cl)CC2)n[nH]c1C1(c2ccccc2)CC1` [Ex. 1-11], the IC50 was less than 10 nM.

For `CCOC(=O)c1c(-c2ccc(Cl)cc2Cl)n[nH]c1C1(c2ccccc2)CC1` [Ex. 1-4], the IC50 lay in the range of 10 to 1000 nM. As for `Clc1ccc(-c2cc(C3(c4ccccc4)CC3)[nH]n2)c(Cl)c1` [Ex. 1-5], the IC50 lay in the range of 10 to 1000 nM. As to `Clc1ccc(-c2cc(CCc3ccccc3Cl)n[nH]2)c(Cl)c1` [Ex. 1-2], the IC50 fell in the range of 10 to 1000 nM. With `Cc1c(C2(c3ccc(F)cc3)CC2)n[nH]c1C1(c2ccc(F)cc2)CC1` [Ex. 1-16], the IC50 was less than 10 nM. Under `Cc1c(-c2ccc(Cl)cc2Cl)n[nH]c1Cc1ccc(F)cc1` [Ex. 1-9] stands 10 to 1000 nM.

Consider `Cc1c(C2CCN(c3c(Cl)cncc3Cl)CC2)n[nH]c1C1(c2ccccc2)CC1` [Ex. 1-10], for which the IC50 was 10 to 1000 nM. Under `Cc1c(-c2ccccc2)n[nH]c1C1(c2ccc(F)cc2)CC1` [Ex. 1-13] stands less than 10 nM; under `Cc1c(-c2ccc(N3CCOC3=O)cc2Cl)n[nH]c1C1(c2ccccc2)CC1` [Ex. 1-14], 10 to 1000 nM. Regarding `Cc1c(CCc2ccccc2Cl)n[nH]c1-c1ccc(Cl)cc1Cl` [Ex. 1-3], the IC50 is less than 10 nM. Under `Cc1c(-c2ccc(Cl)cc2Cl)n[nH]c1C1(c2ccccc2)CC1` [Ex. 1-1, 3-(2,4-dichlorophenyl)-4-methyl-5-((1-phenylcyclopropane)-1-yl)-pyrazole] stands less than 10 nM.
